Measured values: US20240415819A1, “MACROCYCLIC COMPOUNDS AS PROTEASOME SUBUNIT BETA TYPE-5 INHIBITORS” (Lead Discovery Center GmbH, priority 2021, published 2024)

How the values were obtained:
HT-29 cells = assay: CellTiter-Glo luminescent cell viability assay with HT-29 cells (72h incubation); type: cell-based, human; conditions: HT29 cells, read-out: CTG HT29
In short: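 Viability read as CellTiter-Glo luminescence after 72 h compound exposure, with 10 μM staurosporine and DMSO as control wells. Seeding 400 cells per well, compound added 24 h post-plating; IC50 from curve fitting.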

B cell = B cell diff. (Table 4, method not given); type: cell-based
[1] = molecular target: T1, β5 subunit of the human immunoproteasome (IPS) (Homo sapiens, UniProt P28062); assay: β5 inhibition assay, human immunoproteasome (Suc-LLVY-AMC); type: biochemical; conditions: IC50 class, Suc-LLVY-AMC substrate
T1 construct: purchased Boston Biochem E-370
In short: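 β5 activity is read as liberated AMC fluorescence (355/460 nm) after 4 h dark reaction at RT with 22.6 μM Suc-LLVY-AMC, stopped by 1 μM bortezomib. Beforehand, 1 nM human IPS and compound sat 10 min at RT in HEPES pH 7.5 buffer containing NaCl, 0.02% SDS and DTT.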

Measured: IC50

Cc1ccc2cc1CNC(=O)C(CCc1ccccc1)NC(=O)C(NC(=O)CCc1ccccc1)CC(=O)N1CCCC(CCO2)C1 [Compound 30, N-((9S,12S)-5^4-methyl-8,11,14-trioxo-9-phenethyl-4-oxa-7,10-diaza-1(3,1)-piperidina-5(1,3)-benzenacyclotetradecaphane-12-yl)-3-phenylpropanamide]
< 100 nM: all assays above
